This test concerns PANK2 silenced human neuroblastoma IMR32 cells (PANK2−/−). Nature of the test: Coenzyme A assay in PANK2 silenced cells (LC-MS quantification of free CoA). The format is cell-based. As to conditions: compound added twice (24 h + 24 h), relative to 0.1% DMSO controls. The essentials:
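Free intracellular CoA was measured by positive-mode LC-MS/MS of 20% TFA extracts, taking 2 μl per 10^6 cells as intracellular volume. Cells were IMR32 with stable lentiviral PANK2 knockdown, dosed twice 24 h apart (48 h total, 0.1% DMSO). Output is fold increase over vehicle.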

With `CCN(CC)C(=O)[C@H](Cc1ccccc1)NC(=O)OCOP1(=O)OCC(C)(C)[C@H](C(=O)NCCC(=O)OC)O1` (stereo partly drawn) [2-135, methyl 3-((4R)-2-(((((S)-1-(diethylamino)-1-oxo-3-phenylpropan-2-yl)carbamoyl)oxy)methoxy)-5,5-dimethyl-2-oxido-1,3,2-dioxaphosphinane-4-carboxamido)propanoate], the “PANK2−/− CoA (Fold Increase): fold increase in Coenzyme A (CoA) levels relative to controls” value stood at 1.7 Fold Increase.

With `COC(=O)CCNC(=O)[C@@H]1OP(=O)(OCOC(=O)c2ocnc2C)OCC1(C)C` (stereo partly drawn) [2-147, (((4R)-4-((3-methoxy-3-oxopropyl)carbamoyl)-5,5-dimethyl-2-oxido-1,3,2-dioxaphosphinan-2-yl)oxy)methyl 4-methyloxazole-5-carboxylate], the “PANK2−/− CoA (Fold Increase): fold increase in Coenzyme A (CoA) levels relative to controls” value is on record as 39.19 Fold Increase.

On to `COC(=O)CCNC(=O)[C@@H]1O[P@](=O)(Oc2ccc(F)cc2)OCC1(C)C` [2-179, methyl 3-((2R,4R)-2-(4-fluorophenoxy)-5,5-dimethyl-2-oxido-1,3,2-dioxaphosphinane-4-carboxamido)propanoate], for which the “PANK2−/− CoA (Fold Increase): fold increase in Coenzyme A (CoA) levels relative to controls” value came to 87.22 Fold Increase.

Take `COC(=O)CCNC(=O)[C@@H]1OP(=O)(N2CCCCC2)OCC1(C)C` (stereo in doubt) [compound 133, methyl 3-((2R,4R)-5,5-dimethyl-2-oxido-2-(piperidin-1-yl)-1,3,2-dioxaphosphinane-4-carboxamido)propanoate]: the “PANK2−/− CoA (Fold Increase): fold increase in Coenzyme A (CoA) levels relative to controls” value is recorded as 1.45 Fold Increase.

As for `COC(=O)CCNC(=O)[C@@H]1OP(=O)(OCOC(=O)NCCOC(C)=O)OCC1(C)C` (stereo partly drawn) [2-168, methyl 3-((4R)-2-((((2-acetoxyethyl)carbamoyl)oxy)methoxy)-5,5-dimethyl-2-oxido-1,3,2-dioxaphosphinane-4-carboxamido)propanoate], the “PANK2−/− CoA (Fold Increase): fold increase in Coenzyme A (CoA) levels relative to controls” value came to 2.69 Fold Increase.

Turning to `COC(=O)CCNC(=O)[C@@H]1O[P@@](=O)(N2CCS(=O)(=O)CC2)OCC1(C)C` [compound 137, methyl 3-((2R,4R)-2-(1,1-dioxidothiomorpholino)-5,5-dimethyl-2-oxido-1,3,2-dioxaphosphinane-4-carboxamido) propanoate], the “PANK2−/− CoA (Fold Increase): fold increase in Coenzyme A (CoA) levels relative to controls” value is 1.76 Fold Increase.

Regarding `COC(=O)CCNC(=O)[C@@H]1O[P@](=O)(OCOC(=O)NCCSC(=O)[C@@H](N)C(C)C)OCC1(C)C` [2-193, methyl 3-((2R,4R)-2-((((2-((L-valyl)thio)ethyl)carbamoyl)oxy)methoxy)-5,5-dimethyl-2-oxido-1,3,2-dioxaphosphinane-4-carboxamido)propanoate], the “PANK2−/− CoA (Fold Increase): fold increase in Coenzyme A (CoA) levels relative to controls” value was determined as 5.03 Fold Increase.

As for `COC(=O)CCNC(=O)[C@@H]1O[P@@](=O)(OCOC(=O)c2cc(C(C)(C)C)n[nH]2)OCC1(C)C` [2-186, (((2S,4R)-4-((3-methoxy-3-oxopropyl)carbamoyl)-5,5-dimethyl-2-oxido-1,3,2-dioxaphosphuian-2-yl)oxy)methyl 3-(tert-butyl)-1H-pyrazole-5-carboxylate], the “PANK2−/− CoA (Fold Increase): fold increase in Coenzyme A (CoA) levels relative to controls” value worked out at 101.14 Fold Increase.

On to `COC(=O)CCNC(=O)[C@@H]1OP(=O)(OCOC(=O)NC(C)(C)COC(=O)C(C)(C)C)OCC1(C)C` (stereo partly drawn) [2-167, 2-((((((4R)-4-((3-methoxy-3-oxopropyl)carbamoyl)-5,5-dimethyl-2-oxido-1,3,2-dioxaphosphinan-2-yl)oxy)methoxy)carbonyl)amino)-2-methylpropyl pivalate], for which the “PANK2−/− CoA (Fold Increase): fold increase in Coenzyme A (CoA) levels relative to controls” value is listed as 3.26 Fold Increase.

On to `COC(=O)CCNC(=O)[C@@H]1O[P@@](=O)(OCOC(=O)C2(C(N)=O)CC2)OCC1(C)C` [2-131, (((2S,4R)-4-((3-methoxy-3-oxopropyl)carbamoyl)-5,5-dimethy)-2-oxido-1,3,2-dioxaphosphinan-2-yl)oxy)methyl 1-carbamoylcyclopropane-1-carboxylate], for which the “PANK2−/− CoA (Fold Increase): fold increase in Coenzyme A (CoA) levels relative to controls” value is 1.44 Fold Increase.

For the compound `CCOC(=O)CCNC(=O)[C@@H]1OP(=O)(OCOC(=O)C(C)(C)C)OCC1(C)C` (single isomer, unassigned) [Compound No. 107], the “PANK2−/− CoA (Fold Increase): fold increase in Coenzyme A (CoA) levels relative to controls” value amounted to 85.06 Fold Increase.

On to `COC(=O)CCNC(=O)[C@@H]1O[P@](=O)(Oc2ccccc2C(=O)OC)OCC1(C)C` [2-166], for which the “PANK2−/− CoA (Fold Increase): fold increase in Coenzyme A (CoA) levels relative to controls” value came to 3.61 Fold Increase.

As to `COC(=O)CCNC(=O)[C@@H]1OP(=O)(OCOC(=O)c2scnc2C(C)(C)C)OCC1(C)C` (stereo partly drawn) [2-173, (((4R)-4-((3-methoxy-3-oxopropyl)carbamoyl)-5,5-dimethyl-2-oxido-1,3,2-dioxaphosphinan-2-yl)oxy)methyl 4-(tert-butyl)thiazole-5-carboxylate], the “PANK2−/− CoA (Fold Increase): fold increase in Coenzyme A (CoA) levels relative to controls” value was 2.57 Fold Increase.

Turning to `COC(=O)CCNC(=O)[C@@H]1O[P@@](=O)(OC(C)OC(=O)C(C)C)OCC1(C)C` (stereo partly drawn) [compound 106, 1-(((2S,4R)-4-((3-methoxy-3-oxopropyl)carbamoyl)-5,5-dimethyl-2-oxido-1,3,2-dioxaphosphinan-2-yl)oxy)ethyl isobutyrate], the “PANK2−/− CoA (Fold Increase): fold increase in Coenzyme A (CoA) levels relative to controls” value was determined as 2.66 Fold Increase.

For `CCOC(=O)[C@H](CC(C)C)NP1(=O)OCC(C)(C)[C@H](C(=O)NCCC(=O)OC)O1` (stereo partly drawn) [compound 8, ethyl ((4R)-4-((3-methoxy-3-oxopropyl)carbamoyl)-5,5-dimethyl-2-oxido-3,3,2-dioxaphosphinan-2-yl)-L-leucinate], the “PANK2−/− CoA (Fold Increase): fold increase in Coenzyme A (CoA) levels relative to controls” value came to 0.69 Fold Increase.

In the case of `COC(=O)CCNC(=O)[C@@H]1O[P@@](=O)(Oc2ccccc2C(=O)OC)OCC1(C)C` [2-117, methyl 2-(((2S,4R)-4-((3-methoxy-3-oxopropyl)carbamoyl)-5,5-dimethyl-2-oxido-1,3,2-dioxaphosphinan-2-yl)oxy)benzoate], the “PANK2−/− CoA (Fold Increase): fold increase in Coenzyme A (CoA) levels relative to controls” value is 1.11 Fold Increase.

As for `CC(C)(C)OC(=O)CCNC(=O)[C@@H]1O[P@](=O)(OCc2ccccc2)OCC1(C)C` [Compound No. 63, tert-butyl 3-((4R)-2-(benzyloxy)-5,5-dimethyl-2-oxido-1,3,2-dioxaphosphinane-4-carboxamido)propanoate], the “PANK2−/− CoA (Fold Increase): fold increase in Coenzyme A (CoA) levels relative to controls” value is listed as 2.24 Fold Increase.

With `COC(=O)CCNC(=O)[C@@H]1O[P@@](=O)(OCOC(=O)c2cc(C(C)(C)C)nn2C)OCC1(C)C` [2-169, (((2S,4R)-4-((3-methoxy-3-oxopropyl)carbamoyl)-5,5-dimethyl-2-oxido-1,3,2-dioxaphosphinan-2-yl)oxy)methyl 3-(tert-butyl)-1-methyl-1H-pyrazole-5-carboxylate], the “PANK2−/− CoA (Fold Increase): fold increase in Coenzyme A (CoA) levels relative to controls” value was found to be 20.26 Fold Increase.

As for `COC(=O)CCNC(=O)[C@@H]1O[P@](=O)(OC(C)OC(=O)C(C)(C)C)OCC1(C)C` (stereo partly drawn) [compound 102, 1-(((2R,4R)-4-((3-methoxy-3-oxopropyl)carbamoyl)-5,5-dimethyl-2-oxido-1,3,2-dioxaphosphinan-2-yl)oxy)ethyl pivalate], the “PANK2−/− CoA (Fold Increase): fold increase in Coenzyme A (CoA) levels relative to controls” value was 2.5 Fold Increase.

As for `COC(=O)CCNC(=O)[C@@H]1O[P@@](=O)(OCOC(=O)NCCSC(=O)[C@@H](N)C(C)C)OCC1(C)C` [2-194, methyl 3-((2S,4R)-2-((((2-((L-valyl)thio)ethyl)carbamoyl)oxy)methoxy)-5,5-dimethyl-2-oxido-1,3,2-dioxaphosphinane-4-carboxamido)propanoate], the “PANK2−/− CoA (Fold Increase): fold increase in Coenzyme A (CoA) levels relative to controls” value amounted to 11.44 Fold Increase.

As to `COC(=O)CCNC(=O)[C@@H]1O[P@](=O)(Oc2ccc(C(F)(F)F)cc2)OCC1(C)C` [2-197, methyl 3-((2R,4R)-5,5-dimethyl-2-oxido-2-(4-(trifluoromethyl)phenoxy)-1,3,2-dioxaphosphinane-4-carboxamido)propanoate], the “PANK2−/− CoA (Fold Increase): fold increase in Coenzyme A (CoA) levels relative to controls” value amounted to 101.95 Fold Increase.

Turning to `COC(=O)CCNC(=O)[C@@H]1OP(=O)(OCOC(=O)c2cnco2)OCC1(C)C` (stereo partly drawn) [Compound No. 87, (((4R)-4-((3-methoxy-3-oxopropyl)carbamoyl)-5,5-dimethyl-2-oxido-1,3,2-dioxaphosphinan-2-yl)oxy)methyl oxazole-5-carboxylate], the “PANK2−/− CoA (Fold Increase): fold increase in Coenzyme A (CoA) levels relative to controls” value is on record as 58.7 Fold Increase.

Turning to `COC(=O)CCNC(=O)[C@@H]1OP(=O)(OCOC(=O)N[C@@H](CSC(=O)C(C)(C)C)C(=O)OCc2ccccc2)OCC1(C)C` (stereo partly drawn) [2-174, benzyl N-(((((4R)-4-((3-methoxy-3-oxopropyl)carbamoyl)-5,5-dimethyl-2-oxido-1,3,2-dioxaphosphinan-2-yl)oxy)methoxy)carbonyl)-S-pivaloyl-L-cysteinate], the “PANK2−/− CoA (Fold Increase): fold increase in Coenzyme A (CoA) levels relative to controls” value worked out at 93.99 Fold Increase.

For the compound `COC(=O)CCNC(=O)[C@@H]1O[P@](=O)(OCOC(=O)N[C@@H](CSC(=O)C(C)(C)C)C(=O)OCc2ccccc2)OCC1(C)C` [2-206, benzyl N-(((((2R,4R)-4-((3-methoxy-3-oxopropyl)carbamoyl)-5,5-dimethyl-2-oxido-1,3,2-dioxaphosphinan-2-yl)oxy)methoxy)carbonyl)-S-pivaloyl-L-cysteinate], the “PANK2−/− CoA (Fold Increase): fold increase in Coenzyme A (CoA) levels relative to controls” value is recorded as 64.41 Fold Increase.

Regarding `COC(=O)CCNC(=O)[C@@H]1O[P@](=O)(NCC2CCCO2)OCC1(C)C` (stereo partly drawn) [compound 119, methyl 3-((2S,4R)-5,5-dimethyl-2-oxido-2-(((tetrahydrofuran-2-yl)methyl)amino)-1,3,2-dioxaphosphinane-4-carboxamido)propanoate], the “PANK2−/− CoA (Fold Increase): fold increase in Coenzyme A (CoA) levels relative to controls” value amounted to 1.44 Fold Increase.
